Test results as given in patent publication US20100216779A1 (GLAXOSMITHKLINE LLC, priority 2007, published 2010).
pIC50: −log10 of the molar value.

System: various cell lines of different tumor origins
Assay: Inhibition of cell proliferation, InCell Analyzer assay
Format: cell-based
Protocol: C. Inhibition of Cell Proliferation
For InCell Analyser assay, various cell lines of different tumor origins were grown to 70-80% confluency in appropriate culture media containing 10% fetal bovine serum at 37° C. in a 5% CO2 incubator. On day-1, cells were seeded at 2 densities in 384-well plates and incubated at 37° C. overnight. Stock compound plates were prepared in advance which contained dimethyl sulfoxide (DMSO) alone and a 9-point half-log decreasing dose range of the compound of Example 22 in DMSO. The compound plates were stored at −80° C. and each plate was only thawed once and used. On day 0, the main assay plates received compound or DMSO via a sonic delivery system (ECHO). The highest final concentration of compound of the dose range in the culture plates was 10 uM. These plates were cultured at 37° C. for 3 days. […] On day 3, the compound treated plates were stained and fixed to measure proliferation, apoptosis, and mitotic index using an InCell1000 analyser. A nuclear stain was used to identify cells in the wells. By counting the number of nuclei, the proliferation index of compound treated groups were calculated as a percentage relative to the DMSO control, which was set to 100%. The IC50 values were calculated using model 205 in ExcelFit.

pIC50 (Homo sapiens, NCI-H292, NCI-H292, Lung): 5.30 to 6.00
pIC50 (Homo sapiens, NCI-H295R, Cervix): < 5.30
pIC50 (Homo sapiens, NCI-H358, NCI-H358, Lung): > 6.00
pIC50 (Homo sapiens, NCI-H460, NCI-H460, Lung): 5.30 to 6.00
pIC50 (Homo sapiens, NCI-H520, NCI-H520, Lung): 5.30 to 6.00
pIC50 (Homo sapiens, NCI-H522, NCI-H522, Lung): 5.30 to 6.00
pIC50 (Homo sapiens, NCI-H526, NCI-H526, Lung): > 6.00
pIC50 (Homo sapiens, NCI-H596, NCI-H596, Lung): < 5.30
pIC50 (Homo sapiens, NCI-H630, NCI-H630, Rectum): > 6.00
pIC50 (Homo sapiens, NCI-H661, NCI-H661, Lung): 5.30 to 6.00
pIC50 (Homo sapiens, NCI-H716, NCI-H716, Colon): > 6.00
pIC50 (Homo sapiens, NCI-H727, NCI-H727, Lung): 5.30 to 6.00
pIC50 (Homo sapiens, NCI-H747, NCI-H747, Colon): 5.30 to 6.00
pIC50 (Homo sapiens, NCI-H1395, NCI-H1395, Lung): < 5.30
pIC50 (Homo sapiens, NCI-H2087, NCI-H2087, Lung): < 5.30
pIC50 (Homo sapiens, NCI-N87, NCI-N87, Stomach): > 6.00
pIC50 (Homo sapiens, NCI/ADR-RES, Breast): 5.30 to 6.00
pIC50 (Homo sapiens, OV-90, OV-90, Ovary): < 5.30
pIC50 (Homo sapiens, OVCAR-3, OVCAR-3, Ovary): < 5.30
pIC50 (Homo sapiens, OVCAR-4, OVCAR-4, Ovary): 5.30 to 6.00
pIC50 (Homo sapiens, OVCAR-5, OVCAR-5, Ovary): > 6.00
pIC50 (Homo sapiens, OVCAR-8, OVCAR-8, Ovary): 5.30 to 6.00
pIC50 (Homo sapiens, RL95-2, RL95-2, Uterus): 5.30 to 6.00
pIC50 (Homo sapiens, RPMI-2650, RPMI2650, H&N): 5.30 to 6.00
pIC50 (Homo sapiens, RPMI-6666, RPMI6666, lymphoma - Hodgkin): 5.30 to 6.00
pIC50 (Homo sapiens, RPMI-8226, RPMI8226, Myeloma): > 6.00
pIC50 (Homo sapiens, RWPE-1, RWPE-1, Prostate): > 6.00
pIC50 (Homo sapiens, RXF 393, RXF393, Kidney): 5.30 to 6.00
pIC50 (Homo sapiens, Raji, lymphoma - Burkitt): 5.30 to 6.00
pIC50 (Homo sapiens, SAOS-2, SaOS-2, Sarcoma): > 6.00
pIC50 (Homo sapiens, SCC-4, SCC-4, H&N): 5.30 to 6.00
pIC50 (Homo sapiens, SCC-9, SCC-9, H&N): < 5.30
pIC50 (Homo sapiens, SCC-15, SCC-15, H&N): < 5.30
pIC50 (Homo sapiens, SCC-25, SCC-25, H&N): > 6.00
pIC50 (Homo sapiens, SCaBER, Bladder): 5.30 to 6.00
pIC50 (Homo sapiens, SF-268, SF-268, glioma): 5.30 to 6.00
pIC50 (Homo sapiens, SF-295, SF-295, glioma): < 5.30
pIC50 (Homo sapiens, SF-539, SF-539, glioma): < 5.30
pIC50 (Homo sapiens, SHP77, SHP-77, Lung): 5.30 to 6.00
pIC50 (Homo sapiens, SJRH30, SJRH30, Sarcoma - rhabdomyosarcoma): > 6.00
pIC50 (Homo sapiens, SK-BR-3, SK-BR-3, Breast): 5.30 to 6.00
pIC50 (Homo sapiens, SK-LMS-1, SK-LM-S1, Sarcoma): 5.30 to 6.00
pIC50 (Homo sapiens, SK-MEL3, SK-MEL-3, Skin): < 5.30
pIC50 (Homo sapiens, SK-MEL-1, SK-MEL-1, Skin): < 5.30
pIC50 (Homo sapiens, SK-MEL-28, SK-MEL-28, Skin): 5.30 to 6.00
pIC50 (Homo sapiens, SK-N-AS, neuroblastoma): 5.30 to 6.00
pIC50 (Homo sapiens, SK-N-DZ, neuroblastoma): 5.30 to 6.00
pIC50 (Homo sapiens, SK-N-FI, neuroblastoma): > 6.00
pIC50 (Homo sapiens, SK-NEP-1, SK-NEP-1, Kidney): < 5.30
pIC50 (Homo sapiens, SK-OV-3, SK-OV-3, Ovary): < 5.30
pIC50 (Homo sapiens, SK-UT-1, SK-UT-1, Sarcoma): 5.30 to 6.00
pIC50 (Homo sapiens, SN12C, Kidney): 5.30 to 6.00
pIC50 (Homo sapiens, SNB-19, SNB-19, glioma): < 5.30
pIC50 (Homo sapiens, SNB-75, SNB-75, glioma): < 5.30
pIC50 (Homo sapiens, SNU1, SNU-1, Stomach): < 5.30
pIC50 (Homo sapiens, SNU-5, SNU-5, Stomach): < 5.30
pIC50 (Homo sapiens, SNU-16, SNU-16, Stomach): < 5.30
pIC50 (Homo sapiens, SNU-182, SNU-182, Liver): 5.30 to 6.00
pIC50 (Homo sapiens, SNU-387, SNU-387, Liver): 5.30 to 6.00
pIC50 (Homo sapiens, SNU-398, SNU-398, Liver): 5.30 to 6.00
pIC50 (Homo sapiens, SNU-423, SNU-423, Liver): 5.30 to 6.00
pIC50 (Homo sapiens, SNU-449, SNU-449, Liver): < 5.30
pIC50 (Homo sapiens, SNU-475, SNU-475, Liver): 5.30 to 6.00
pIC50 (Homo sapiens, ST486, ST486, lymphoma - Burkitt): 5.30 to 6.00
pIC50 (Homo sapiens, SW48, SW48, Colon): > 6.00
pIC50 (Homo sapiens, SW480, SW480, Colon): 5.30 to 6.00
pIC50 (Homo sapiens, SW684, SW684, Sarcoma): < 5.30
pIC50 (Homo sapiens, SW756, SW756, Cervix): 5.30 to 6.00
pIC50 (Homo sapiens, SW780, SW780, Bladder): < 5.30
pIC50 (Homo sapiens, SW837, SW837, Colon): < 5.30
pIC50 (Homo sapiens, SW872, SW872, Sarcoma): 5.30 to 6.00
pIC50 (Homo sapiens, SW948, SW948, Colon): < 5.30
pIC50 (Homo sapiens, SW 954, SW954, Vulva): > 6.00
pIC50 (Homo sapiens, SW 962, SW962, Vulva): > 6.00
pIC50 (Homo sapiens, SW982, SW982, Sarcoma): < 5.30
pIC50 (Homo sapiens, SW1088, SW1088, glioma): 5.30 to 6.00
pIC50 (Homo sapiens, SW 1116, SW1116, Colon): < 5.30
pIC50 (Homo sapiens, SW1353, SW1353, Sarcoma): < 5.30
pIC50 (Homo sapiens, SW1417, SW1417, Colon): > 6.00
pIC50 (Homo sapiens, SW1463, SW1463, Rectum): > 6.00
pIC50 (Homo sapiens, SW1783, SW1783, glioma): < 5.30
pIC50 (Homo sapiens, SW1990, SW1990, Pancreas): 5.30 to 6.00
pIC50 (Homo sapiens, SW-403, SW403, Colon): > 6.00
pIC50 (Homo sapiens, SW-620, SW620, Colon): 5.30 to 6.00
pIC50 (Homo sapiens, SiHa, Cervix): 5.30 to 6.00
pIC50 (Homo sapiens, T47D, T-47D, Breast): 5.30 to 6.00
pIC50 (Homo sapiens, THP-1, THP-1, AML): 5.30 to 6.00
pIC50 (Homo sapiens, TK-10, TK-10, Kidney): 5.30 to 6.00
pIC50 (Homo sapiens, U2OS, U-2OS, Sarcoma): 5.30 to 6.00
pIC50 (Homo sapiens, U138-MG, U-138MG, glioma): < 5.30
pIC50 (Homo sapiens, U-87 MG, glioma): < 5.30
pIC50 (Homo sapiens, U-251, U251, glioma): 5.30 to 6.00
pIC50 (Homo sapiens, UACC-62, UACC-62, Skin): 5.30 to 6.00
pIC50 (Homo sapiens, UACC-257, UACC-257, Skin): 5.30 to 6.00
pIC50 (Homo sapiens, UACC-812, UACC-812, Breast): < 5.30
pIC50 (Homo sapiens, UMUC3, UM-UC-3, Bladder): < 5.30
pIC50 (Homo sapiens, UO-31, UO-31, Kidney): 5.30 to 6.00
pIC50 (Homo sapiens, WM-115, WM115, Skin): < 5.30
pIC50 (Homo sapiens, YAPC, Pancreas): < 5.30
pIC50 (Homo sapiens, ZR-75-1, ZR-75-1, Breast): < 5.30
pIC50 (J82, Bladder): 5.30 to 6.00
pIC50 (JAR, Placenta): 5.30 to 6.00
pIC50 (KHOS-240S, Sarcoma): 5.30 to 6.00
pIC50 (KLE, Uterus): 5.30 to 6.00
pIC50 (KPL-1, KPL-1, Breast): 5.30 to 6.00
pIC50 (M14, Skin): 5.30 to 6.00
pIC50 (MC-CAR, #N/A): 5.30 to 6.00
pIC50 (ML-2, AML): < 5.30
pIC50 (MT-3, Breast): > 6.00
pIC50 (MX-1, Breast): 5.30 to 6.00
pIC50 (NALM-1, CML blast phase): 5.30 to 6.00
pIC50 (NCI-H322, NCI-H322, Lung): > 6.00
pIC50 (NCI-H660, NCI-H660, Prostate): < 5.30
pIC50 (RD, Sarcoma - rhabdomyosarcoma): < 5.30
pIC50 (RD-ES, Sarcoma): > 6.00
pIC50 (RL, lymphoma - non-Hodgkin): 5.30 to 6.00
pIC50 (SCC12, SCC-12, H&N): < 5.30
pIC50 (SCC-13, SCC-13, H&N): < 5.30
pIC50 (SCLC-3, Lung): 5.30 to 6.00
pIC50 (SH-4, Skin): 5.30 to 6.00
pIC50 (SKO-007, SKO-007, Myeloma): 5.30 to 6.00
pIC50 (SR, lymphoma - large cell immunoblastic): 5.30 to 6.00
pIC50 (SW579, SW579, Thyroid): 5.30 to 6.00
pIC50 (T24, Bladder): < 5.30
pIC50 (T-cell, MJ, lymphoma - cutaneous T cell): 5.30 to 6.00
pIC50 (TE 381.T, TE381.T, Sarcoma - rhabdomyosarcoma): > 6.00
pIC50 (TO 175.T, TO175.T, Skin): 5.30 to 6.00
pIC50 (U266B1, Myeloma): 5.30 to 6.00
pIC50 (Y79, Eye): < 5.30
Compound: COc1cc(N2CCC(N3CCCCC3)CC2)ccc1Nc1nccc(-c2c(-c3cccc(C(=O)Nc4c(F)cccc4F)c3)nc3ccccn23)n1 [Example 22, 3-[3-(2-{[4-(1,4′-bipiperidin-1′-yl)-2-(methyloxy)phenyl]amino}-4-pyrimidinyl)imidazo[1,2-a]pyridin-2-yl]-N-(2,6-difluorophenyl)benzamide]
